# Bridge positions count the residues as written; N and C are the ends. Square brackets hold non-standard residues; d marks the D form. Peptide text beside a SMILES is read from it. * marks the point of attachment. DOTA = O=C(O)CN1CCN(CC(=O)O)CCN(CC(=O)*)CCN(CC(=O)O)CC1
# Tests used:
# [1] = 225Ac chelate, non-tumor bearing BALB/c mice
# Description: BD of ^225Ac-DOTA-linker-TATE derivatives in non-tumor bearing BALB/c mice: The biodistribution studies for all 5 compounds were conducted (FIG. 4 and Table 1).
# [2] = Log D7.4, miniaturized shake flask assay (n-octanol/PBS pH 7.4); assay type: physicochemical; conditions: for Log D7.4 of La^3+ chelate: La3+ chelate, n-octanol/PBS; for LogD7.4: metal chelate as named (Eu or La)
# Description: Log D7.4 measurements of the La^3+-labeled derivatives: The octanol-water partition coefficients at pH7.4 (LogD7.4) of DOTA-linker-TATE derivatives were determined using the miniaturized shake flask assay (Table 1). Briefly, 1:1 n-octanol (HPLC grade) was added to the solution of the test compound in PBS buffer (NaH2PO4/Na2HPO4 buffer, pH 7.4). The mixture was well mixed and then two layers were separated by centrifuge. The concentrations of compound in each layer were determined by HPLC.
# in vitro = in vitro ADME; conditions: human, plasma
# Description: The compound was >95% intact after 5 days incubation.
# [3] = design: species or system BALB/c mice; conditions: mouse, in vivo
# Description: (§1) Non-tumor bearing BALB/c mice were tested for toxicity and BD. […] RD was calculated using the BD data.
# (§2) RD calculations determined pharmacokinetics parameters and absorbed α-emission dosages from ^225Ac and its daughters.
# [4] = mouse, in vivo
# Description: as §1, §2
# SSTR2 receptor = molecular target: T1, SSTR2 receptor (Homo sapiens, UniProt P30874); test: whole-cell competition binding assay with Eu-DOTATATE as competing ligand (Hek293/SSTR2 cells); conditions: FIGS. 5 and 6
# T1 construct: expressed in transfected cells; host or cells: Hek293/SSTR2 cells
# Description: Competition curves were analyzed with GraphPad Prism software using the sigmoidal dose-response (variable slope) classical equation for nonlinear regression analysis.
# T1 sequence (P30874 whole entry): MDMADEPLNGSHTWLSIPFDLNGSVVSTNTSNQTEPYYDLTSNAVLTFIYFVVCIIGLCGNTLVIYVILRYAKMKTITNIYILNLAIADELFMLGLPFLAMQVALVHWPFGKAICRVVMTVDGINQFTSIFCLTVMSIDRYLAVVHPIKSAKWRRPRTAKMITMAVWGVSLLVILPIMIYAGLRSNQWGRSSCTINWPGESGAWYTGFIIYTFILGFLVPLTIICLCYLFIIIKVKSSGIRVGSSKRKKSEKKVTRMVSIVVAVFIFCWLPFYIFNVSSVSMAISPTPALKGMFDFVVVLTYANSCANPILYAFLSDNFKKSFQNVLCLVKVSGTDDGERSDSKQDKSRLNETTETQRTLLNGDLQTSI
compound,measurement,setting,value
"C[C@@H](O)[C@H](NC(=O)[C@@H]1CSSC[C@H](NC(=O)[C@@H](Cc2ccccc2)NC(=O)CCCCCNC(=O)CN2CCN(CC(=O)O)CCN(CC(=O)O)CCN(CC(=O)O)CC2)C(=O)N[C@@H](Cc2ccc(O)cc2)C(=O)N[C@H](Cc2c[nH]c3ccccc23)C(=O)N[C@@H](CCCCN)C(=O)N[C@@H]([C@@H](C)O)C(=O)N1)C(=O)O [Compound 2, DOTA-Ahx-TATE]",Kidney/Liver uptake ratio (24 h),[1],5.3
"C[C@@H](O)[C@H](NC(=O)[C@@H]1CSSC[C@H](NC(=O)[C@@H](Cc2ccccc2)NC(=O)[C@@H](CCC(=O)O)NC(=O)[C@@H](CCC(=O)O)NC(=O)CN2CCN(CC(=O)O)CCN(CC(=O)O)CCN(CC(=O)O)CC2)C(=O)N[C@@H](Cc2ccc(O)cc2)C(=O)N[C@H](Cc2c[nH]c3ccccc23)C(=O)N[C@@H](CCCCN)C(=O)N[C@@H]([C@@H](C)O)C(=O)N1)C(=O)O [Compound 3, DOTA-di-D-Glu-TATE]",Kidney/Liver uptake ratio (24 h),[1],16.5
"C[C@@H](O)[C@H](NC(=O)[C@@H]1CSSC[C@H](NC(=O)[C@@H](Cc2ccccc2)NC(=O)[C@@H](CCCCN)NC(=O)[C@@H](CCCCN)NC(=O)CN2CCN(CC(=O)O)CCN(CC(=O)O)CCN(CC(=O)O)CC2)C(=O)N[C@@H](Cc2ccc(O)cc2)C(=O)N[C@H](Cc2c[nH]c3ccccc23)C(=O)N[C@@H](CCCCN)C(=O)N[C@@H]([C@@H](C)O)C(=O)N1)C(=O)O [Compound 10, La-DOTA-D-Lys-D-Lys-TATE]",Log D7.4 of La^3+ chelate,[2],−3.28
same,LogD7.4,[2],−3.28
"C[C@@H](O)[C@H](NC(=O)[C@@H]1CSSC[C@H](NC(=O)[C@@H](Cc2ccccc2)NC(=O)CN2CCN(CC(=O)O)CCN(CC(=O)O)CCN(CC(=O)O)CC2)C(=O)N[C@@H](Cc2ccc(O)cc2)C(=O)N[C@H](Cc2c[nH]c3ccccc23)C(=O)N[C@@H](CCCCN)C(=O)N[C@@H]([C@@H](C)O)C(=O)N1)C(=O)O [Compound 1, DOTA-TATE, reference compound]",Kidney/Liver uptake ratio (24 h),[1],3.6
DOTA-D-Lys-D-Glu-TATE [Compound 5],Kidney/Liver uptake ratio (24 h),[1],87.6
"C[C@@H](O)[C@H](NC(=O)[C@@H]1CSSC[C@H](NC(=O)[C@@H](Cc2ccccc2)NC(=O)CN2CCN(CC(=O)O)CCN(CC(=O)O)CCN(CC(=O)O)CC2)C(=O)N[C@@H](Cc2ccc(O)cc2)C(=O)N[C@H](Cc2c[nH]c3ccccc23)C(=O)N[C@@H](CCCCN)C(=O)N[C@@H]([C@@H](C)O)C(=O)N1)C(=O)O [^225Ac-DOTATATE, metal not drawn]",remaining at 120 h,in vitro,96.7 ± 2.06%
same,% Intact TLC scanner,in vitro; 24 h,100.44 ± 0.88%
same,% Intact TLC scanner,in vitro; 72 h,99.27 ± 0.29%
same,% Intact TLC scanner,in vitro; 168 h,93.19 ± 1.50%
same,% Intact TLC scanner,in vitro; 240 h,90.29 ± 4.00%
same,primary route of elimination,[3],renal route
same,appearance / indications of toxicity,[4],no indications of toxicity
"C[C@@H](O)[C@H](NC(=O)[C@@H]1CSSC[C@H](NC(=O)[C@@H](Cc2ccccc2)NC(=O)[C@@H](CCCCN)NC(=O)[C@@H](CCCCN)NC(=O)CN2CCN(CC(=O)O)CCN(CC(=O)O)CCN(CC(=O)O)CC2)C(=O)N[C@@H](Cc2ccc(O)cc2)C(=O)N[C@H](Cc2c[nH]c3ccccc23)C(=O)N[C@@H](CCCCN)C(=O)N[C@@H]([C@@H](C)O)C(=O)N1)C(=O)O [Compound 4, DOTA-di-D-Lys-TATE]",Kidney/Liver uptake ratio (24 h),[1],89.6
"Eu-DOTA-TATE [Compound 6, reference compound]",LogD7.4,[2],−2.80
"C[C@@H](O)[C@H](NC(=O)[C@@H]1CSSC[C@H](NC(=O)[C@@H](Cc2ccccc2)NC(=O)[C@@H](CCC(=O)O)NC(=O)[C@@H](CCCCN)NC(=O)CN2CCN(CC(=O)O)CCN(CC(=O)O)CCN(CC(=O)O)CC2)C(=O)N[C@@H](Cc2ccc(O)cc2)C(=O)N[C@H](Cc2c[nH]c3ccccc23)C(=O)N[C@@H](CCCCN)C(=O)N[C@@H]([C@@H](C)O)C(=O)N1)C(=O)O [Compound 11, La-DOTA-D-Lys-D-Glu-TATE] ({DOTA}-[dK][dE][dF]CY[dW]KTCT-OH; disulfide 4-9)",Log D7.4 of La^3+ chelate,[2],−3.10
same,LogD7.4,[2],−3.10
"CC(C)C[C@@H](NC(=O)[C@@H](Cc1ccccc1)NC(=O)CN1CCN2CCN3CCN(CC1)CC(=O)[O][139La]([O]C(=O)C2)[O]C(=O)C3)C(=O)N[C@H](Cc1ccccc1)C(=O)N[C@H]1CSSC[C@@H](C(=O)N[C@H](C(=O)O)[C@@H](C)O)NC(=O)[C@H]([C@@H](C)O)NC(=O)[C@H](CCCCN)NC(=O)[C@@H](Cc2c[nH]c3ccccc23)NC(=O)[C@H](Cc2ccc(O)cc2)NC1=O [Compound 15, 139La-DOTA-D-Phe-D-Leu-TATE]",binding affinity for the SSTR2 receptor,SSTR2 receptor,high binding affinity (low nM Ki)
"C[C@@H](NC(=O)[C@@H](Cc1ccccc1)NC(=O)CN1CCN2CCN3CCN(CC1)CC(=O)[O][139La]([O]C(=O)C2)[O]C(=O)C3)C(=O)N[C@H](Cc1ccccc1)C(=O)N[C@H]1CSSC[C@@H](C(=O)N[C@H](C(=O)O)[C@@H](C)O)NC(=O)[C@H]([C@@H](C)O)NC(=O)[C@H](CCCCN)NC(=O)[C@@H](Cc2c[nH]c3ccccc23)NC(=O)[C@H](Cc2ccc(O)cc2)NC1=O [Compound 14, 139La-DOTA-D-Phe-D-Ala-TATE]",binding affinity for the SSTR2 receptor,SSTR2 receptor,high binding affinity (low nM Ki)

# Source: US20240207458A1, “TARGETED ALPHA PARTICLE THERAPY FOR SOMATOSTATIN RECEPTOR 2 POSITIVE NEUROENDOCRINE TUMORS AND METASTASES” (H. LEE MOFFITT CANCER CENTER AND RESEARCH INSTITUTE, INC., priority 2021, published 2024)
